This is an account of results in PMC5834809 (Cancer Science, 2018).

Data set [1] relates to Japanese postmenopausal patients with ER+/HER2− advanced breast cancer. As to the kind of experiment: Exposure to study drugs and dose modifications. As to conditions: for Median average duration of dose interruption (range): during total cycles. It counts as in vivo, human.
The test system of data set [2] is non‐Japanese postmenopausal women with ER+ and HER2− ABC. As to conditions: PALOMA‐1; letrozole 2.5 mg QD alone or with palbociclib 125 mg QD 3/1 schedule; cited from earlier work.
Data set [3] concerns postmenopausal women with ER+/HER2− ABC. The following applies: PALOMA‐2; letrozole with or without palbociclib (3/1 schedule); cited from earlier work.
A short description of data set [4]: Plasma palbociclib steady-state pharmacokinetics. It counts as in vivo, human.
Data set [5] concerns patients with advanced solid tumors refractory to standard therapy. The following applies: single‐agent, Japanese patients, phase I part 1; cited from earlier work.
Data set [6] relates to Japanese women with HR+ ABC. As to conditions: first‐line therapy; cited from earlier work.

`N#Cc1ccc(C(c2ccc(C#N)cc2)n2cncn2)cc1` [letrozole]: in data set [1] (N = 42), the Cycle delay is listed as 8 (19.0) n (%) and the Dose interruption is 30 (71.4) n (%). Besides, the “Median average duration of dose interruption (range)” value in data set [1] is reported as 1.0 (1.0‐24.5) d. Besides, in data set [1] (in vivo), the “Median average duration of cycle delay (range)” value was 7 (5‐47) d and the “Median time to first dose interruption (range)” value was 107 (5‐404) d. For the same compound, the “Median PFS” value in data set [2] was 10.2 months. Also, the “Median PFS” value in data set [3] is given as 14.5 months.
The Tmax is the time from dosing to the highest level. Take `CC(=O)c1c(C)c2cnc(Nc3ccc(N4CCNCC4)cn3)nc2n(C2CCCC2)c1=O` [palbociclib]: the Tmax in data set [4] (human, plasma, oral) came to 4.9 h. In addition, the “Ctrough, predose concentration on cycle 2/day 15” value in data set [4] (with letrozole, N = 30, geometric mean (geometric %CV)) was 86.8 (40) ng/mL. Further, in data set [4] (with letrozole, N = 32, geometric mean (geometric %CV)), the “Ctrough, predose concentration on cycle 1/day 15” value is on record as 89.4 (44) ng/mL. Besides, the “Ctrough, predose concentration on day 15, cycles 1 and 2” value in data set [4] (with letrozole, N = 38, geometric mean of within‐patient mean Ctrough (geometric %CV)) is recorded as 90.1 (42) ng/mL. Besides, in data set [1] (N = 42), the Cycle delay was 39 (92.9) n (%), the Dose interruption is listed as 35 (83.3) n (%) and the “≥1 dose reduction” value was 25 (59.5) n (%). Moreover, the “Median average duration of dose interruption (range)” value in data set [1] is recorded as 5.5 (1.0‐8.5) d. Moreover, in data set [1] (in vivo), the “Median average duration of cycle delay (range)” value is 7 (5‐47) d; the “Median time to dose reduction (range), first dose reduction” value is reported as 64 (29‐232) d; the “Median time to dose reduction (range), second dose reduction” value is recorded as 114 (64‐415) d; the “Median time to first dose interruption (range)” value was 15 (5‐124) d. Moreover, in data set [1] (maximum dose reduction, N = 42), the “Patients with a dose reduction to 75 mg” value is recorded as 8 (19.0) n (%) and the “Patients with a dose reduction to 100 mg” value is 17 (40.5) n (%). Moreover, the Maximum tolerated dose in data set [5] is reported as 125 mg.
In the case of `CC(C)(C#N)c1cc(Cn2cncn2)cc(C(C)(C)C#N)c1` [anastrozole], the “Median time to progression” value in data set [6] was “approximately 12 months”.
On to `C=C1C[C@@H]2[C@H](CC[C@]3(C)C(=O)CC[C@@H]23)[C@@]2(C)C=CC(=O)C=C12` [exemestane], for which the “Median time to progression” value in data set [6] is on record as “approximately 12 months”.
